Patent US11712466B2, “Vaccine composition” (TOHOKU UNIVERSITY, priority 2017, dated 2023)
“Also recorded” adds a separate entry of the source. Ends that are not written are not given here.

Key:
[1] = test system: recombinant human VASH2 protein; assay: Antibody titer in blood of immunized mice by ELISA against recombinant VASH2 protein; format: in vivo, mouse; conditions: for production of an antibody specific to VASH2: Example 5: C57BL/6J mice
Text: C57BL/6J male mice aged 8 weeks were purchased from Charles River Laboratories Japan, Inc. After the delivery, the mice were reared in an environment where the room temperature and the light and dark cycles were maintained, and were provided with feed and water ad libitum. As a candidate sequence leading to activation of helper T cells by MHC class II, two peptide sequences: MTGSAADTHR (SEQ ID NO: 4; hereinafter, a peptide composed of the amino acid sequence is referred to as “MTG peptide”) and RRRQASPPRR (SEQ ID NO: 5; hereinafter, a peptide composed of the amino acid sequence is referred to as “RRR peptide”), each of which is not common to VASH1 in the VASH2 sequence were selected (FIG. 1). With respect to these peptides, peptide vaccines using KLH as a carrier were constructed. Note that for the conjugation of each peptide with KLH, a glutaraldehyde method was used. When the amount of the peptide introduced into KLH was measured for each of the obtained peptide vaccines, the amount of MTG was 66 to 70 nmol/mg of the conjugate, and the amount of RRR was 62 to 76 nmol/mg of the conjugate. Subsequently, 5 μg of KLH (control) and 20 μg of each of the KLH-antigen complexes were prepared with physiological saline so that the total amount was 50 μL, respectively, whereby KLH-mixed solutions were obtained. To each of the KLH-mixed solutions (50 μL), an equal amount of complete Freund's adjuvant was added. The obtained mixture was subcutaneously administered to the mice, whereby initial immunization was carried out. After 2 weeks from the administration, booster immunization was carried out by subcutaneously administering a mixture of each of the KLH-mixed solutions (50 μL) and an equal amount of incomplete Freund's adjuvant to the mice. Further, after 2 weeks from the booster immunization (after a total of 4 weeks), an increase in the antibody titer in the blood of each of the immunized mice was verified by ELISA.
The measurement of the antibody titer by ELISA was carried out as follows. After 2 weeks from the booster immunization (after a total of 4 weeks), the blood was collected from the facial vein of each of the immunized mice, and the serum separated from the blood was subjected to ELISA. By using 50 mM carbonate buffer, peptide-conjugated BSA was prepared at 10 μg/mL, and further a recombinant VASH2 protein was prepared at 1 μg/mL, each of which was added at 50 μL/well, and the resultant was left to stand overnight at 4° C. After the solution in each well was removed, 5% skim milk was added at 150 μL/well. After the resultant was left to stand at room temperature for 2 hours, the solution was removed, and subsequently, a serum sample diluted by 20 to 62500 times with 5% skim milk was added at 50 μL/well, and the resultant was left to stand overnight at 4° C. Subsequently, washing was carried out with PBS (200 μL/well×6 times), and thereafter, a secondary antibody (HRP-conjugated anti-Mouse IgG) diluted by 1000 times with 5% skim milk was added at 50 μL/well. After the resultant was left to stand at room temperature for 3 hours, washing was carried out with PBS (200 μL/well×3 times). Thereafter, tetramethylbenzidine (TMB) was added at 50 μL/well, and the resultant was left to stand at room temperature under light shielding. After 30 minutes, the reaction was stopped by adding 0.5 N H2SO4 at 50 μL/well, and an absorbance (450 nm) was measured using a microplate reader.

[2] = test system: pancreatic cancer cell line (K5); assay: Metastasis inhibitory effect in vivo, K5 injected through tail vein, lung metastatic lesion; design: species or system mouse; conditions: 100 μg, Alhydrogel, C57BL/6J mice, day 21 after K5 injection; KLH control 2 out of 5 mice with metastasis
Experimental: 20 μg or 100 μg of KLH (control) and 20 μg or 100 μg of the MTG peptide vaccine were prepared with physiological saline so that the total amount was 100 μL, respectively, whereby KLH-mixed solutions were obtained. To each of the KLH-mixed solutions (100 μL), an equal amount of Alhydrogel (registered trademark) was added. The obtained mixture (200 μL) was intradermally (ID) administered to C57BL/6J male mice (n=5) aged 8 weeks, whereby initial immunization was carried out (0 day). Incidentally, in the intradermal administration, 200 μL was administered at a dose of 100 μL each to two sites. After 2 weeks from the administration (14 days), booster immunization was carried out by subcutaneously administering a mixture of each of the KLH-mixed solutions (100 μL) and an equal amount of Alhydrogel (registered trademark) to the mice. […] Further, at that time point, the blood was collected from each mouse, and the antibody titer of an antibody specific to the antigen peptide or the recombinant human VASH2 protein was measured by ELISA. The mice were sacrificed on day 21 after the injection of K5 (49 days), and the lung metastatic lesion was analyzed (FIG. 10). […]

[3] = test system: mZeb1; assay: Gene expression in excised tumor tissue by real-time PCR, mZeb1; format: in vivo, mouse; conditions: tumor excised two weeks after implantation
Experimental: (§1) The mouse implanted with the tumor cells in Example 2 was sacrificed two weeks after implantation of the tumor cells, and a tumor was excised from the right axillary subcutaneous region. By using RNeasy Plus Kit (Qiagen, Inc.), extraction of the total RNA from the excised tumor and purification thereof were carried out. By using the obtained total RNA as a template, cDNA was synthesized by reverse transcription reaction. The cDNA was analyzed by performing real-time PCR using a mixed solution of the obtained cDNA and SYBR green (TAKARA BIO, Inc.).

[4] = test system: mCD31; assay: Gene expression in excised tumor tissue by real-time PCR, mCD31; format: in vivo, mouse; conditions: 20 μg vaccine; tumor excised two weeks after implantation
Experimental: as §1

Substance: MTG peptide vaccine: MTG peptide MTGSAADTHR (SEQ ID NO: 4) conjugated with KLH as carrier by a glutaraldehyde method (also: conjugated with KLH by glutaraldehyde)
- antibody titer against the recombinant human VASH2 protein ([1]; Example 1: C57BL/6J mice, KLH-antigen complex s.c., Freund's adjuvant, serum 2 weeks after booster (total 4 weeks)): a significant increase in the antibody titer was confirmed; also recorded: a significant increase in the antibody titer was observed
- production of an antibody specific to VASH2 ([1]; 20 or 100 μg, Alhydrogel adjuvant, day 28): promoted the production of an antibody specific to VASH2
- production of an antibody specific to VASH2 ([1]; 20 or 100 μg, Freund's adjuvant, day 28): promoted the production of an antibody specific to VASH2
- production of an antibody specific to the VASH2 recombinant protein ([1]; Example 6: C57BL/6J mice, 20 or 100 μg, Alhydrogel, day 28): promotes the production of an antibody
- induced antibody binding to the VASH2 recombinant protein ([1]; Example 8: C57BL/6Jx129SVJ mice, 100 μg, Alhydrogel, day 28): induced an antibody that binds to both
- lung metastasis of the pancreatic cancer cells K5 [2]: not confirmed in all four individuals
- expression of mZeb1 (epithelial-mesenchymal transition marker) in tumor tissue [3]: dose-dependent expression inhibitory effect; also recorded: significantly inhibited depending on the dose
- expression of mCD31 (angiogenesis marker) in tumor tissue [4]: expression of mCD31 was inhibited; also recorded: a tendency to inhibit the expression
